Reference: patent US20240016729A1, “INJECTABLE FORMULATIONS OF IBUDILAST” (MediciNova, Inc., priority 2022, published 2024)
Converted amounts (≈) assume the structure as drawn.

Experiments:
[1] = Initial solubility screen with various excipients; type: physicochemical; conditions: for solubility at 24 h: fully dissolved after 24 h
[2] = Follow-up solubility assessment (cosolvent mixtures, surfactants); type: physicochemical; conditions: thermodynamic from solid, ibudilast conc. 75 mg/mL
Experimental: Solubility of ibudilast was assessed using cosolvent mixtures with and without water, increased surfactant concentrations, or a combination of surfactant and cosolvents as shown in the following table.

- solubility ([1]; aqueous buffer, thermodynamic from solid, acetate buffer pH 5, 50 mM, ibudilast conc. 5 mg/mL): 0.175 mg/mL (≈ 0.76 mM)
- solubility ([1]; aqueous buffer, thermodynamic from solid, borate buffer pH 9, 50 mM, ibudilast conc. 5 mg/mL): 0.171 mg/mL (≈ 0.742 mM)
- solubility ([1]; aqueous buffer, thermodynamic from solid, citrate buffer pH 3, 50 mM, ibudilast conc. 5 mg/mL): 0.375 mg/mL (≈ 1.63 mM)
- solubility ([1]; aqueous buffer, thermodynamic from solid, phosphate buffer pH 7.5, 50 mM, ibudilast conc. 5 mg/mL): 0.175 mg/mL (≈ 0.76 mM)
- solubility ([1]; aqueous with cosolvent or surfactant or cyclodextrin, thermodynamic from solid, HP-β-CD 10% w/v, ibudilast conc. 25 mg/mL): 2.11 mg/mL (≈ 9.14 mM)
- solubility ([1]; aqueous with cosolvent or surfactant or cyclodextrin, thermodynamic from solid, HP-β-CD 30% w/v, ibudilast conc. 25 mg/mL): 6.72 mg/mL (≈ 29.2 mM)
- solubility ([1]; aqueous with cosolvent or surfactant or cyclodextrin, thermodynamic from solid, Kolliphor ELP 5% w/v, ibudilast conc. 25 mg/mL): 6.82 mg/mL (≈ 29.6 mM)
- solubility at 24 h ([1]; aqueous with cosolvent or surfactant or cyclodextrin, thermodynamic from solid, Kolliphor ELP 30% w/v, ibudilast conc. 25 mg/mL, solubility may be higher): 28 mg/mL (≈ 122 mM)
- solubility ([1]; aqueous with cosolvent or surfactant or cyclodextrin, thermodynamic from solid, Kolliphor HS 15 5% w/v, ibudilast conc. 25 mg/mL): 5.64 mg/mL (≈ 24.5 mM)
- solubility ([1]; aqueous with cosolvent or surfactant or cyclodextrin, thermodynamic from solid, Kolliphor HS 15 50% w/v, ibudilast conc. 25 mg/mL): 22.8 mg/mL (≈ 99 mM)
- solubility ([1]; aqueous with cosolvent or surfactant or cyclodextrin, thermodynamic from solid, Kolliphor RH 40 5% w/v, ibudilast conc. 25 mg/mL): 5.58 mg/mL (≈ 24.2 mM)
- solubility ([1]; aqueous with cosolvent or surfactant or cyclodextrin, thermodynamic from solid, Kolliphor RH 40 30% w/v, ibudilast conc. 25 mg/mL): 29.5 mg/mL (≈ 128 mM)
- solubility ([1]; aqueous with cosolvent or surfactant or cyclodextrin, thermodynamic from solid, PEG 400 25% w/v, ibudilast conc. 25 mg/mL): 1.11 mg/mL (≈ 4.81 mM)
- solubility ([1]; aqueous with cosolvent or surfactant or cyclodextrin, thermodynamic from solid, SBE-β-CD 10% w/v, ibudilast conc. 25 mg/mL): 3.79 mg/mL (≈ 16.4 mM)
- solubility ([1]; aqueous with cosolvent or surfactant or cyclodextrin, thermodynamic from solid, SBE-β-CD 30% w/v, ibudilast conc. 25 mg/mL): 11.9 mg/mL (≈ 51.6 mM)
- solubility ([1]; aqueous with cosolvent or surfactant or cyclodextrin, thermodynamic from solid, Tween 20 5% w/v, ibudilast conc. 25 mg/mL): 3.21 mg/mL (≈ 13.9 mM)
- solubility at 24 h ([1]; aqueous with cosolvent or surfactant or cyclodextrin, thermodynamic from solid, Tween 20 50% w/v, ibudilast conc. 25 mg/mL, solubility may be higher): 27.2 mg/mL (≈ 118 mM)
- solubility ([1]; aqueous with cosolvent or surfactant or cyclodextrin, thermodynamic from solid, Tween 80 5% w/v, ibudilast conc. 25 mg/mL): 4.79 mg/mL (≈ 20.8 mM)
- solubility ([1]; aqueous with cosolvent or surfactant or cyclodextrin, thermodynamic from solid, Tween 80 30% w/v, ibudilast conc. 25 mg/mL): 21.5 mg/mL (≈ 93.4 mM)
- solubility ([1]; aqueous with cosolvent or surfactant or cyclodextrin, thermodynamic from solid, ethanol 25% w/v, ibudilast conc. 25 mg/mL): 4.15 mg/mL (≈ 18 mM)
- solubility ([1]; aqueous with cosolvent or surfactant or cyclodextrin, thermodynamic from solid, glycerol 25% w/v, ibudilast conc. 25 mg/mL): 0.385 mg/mL (≈ 1.67 mM)
- solubility ([1]; organic solvent or mixture, thermodynamic from solid, PEG 400 100% w/v, more ibudilast added up to 50 mg/mL after 2 h tumbling, solubility may be higher): 51.6 mg/mL (≈ 224 mM)
- solubility ([1]; organic solvent or mixture, thermodynamic from solid, ethanol 100% w/v, more ibudilast added up to 50 mg/mL after 2 h tumbling, solubility may be higher): 50 mg/mL (≈ 217 mM)
- solubility ([1]; organic solvent or mixture, thermodynamic from solid, glycerol 100% w/v, ibudilast conc. 25 mg/mL): 10.3 mg/mL (≈ 44.7 mM)
- solubility ([1]; organic solvent or mixture, thermodynamic from solid, propylene glycol 100% w/v, more ibudilast added up to 50 mg/mL after 2 h tumbling, solubility may be higher): 52.9 mg/mL (≈ 230 mM)
- solubility ([1]; water, ibudilast conc. 5 mg/mL): 0.186 mg/mL (≈ 0.808 mM)
- solubility ([2]; Kolliphor ELP/ethanol/water 5/50/45 % w/v, aqueous with cosolvent or surfactant or cyclodextrin): 83.7 mg/mL
- solubility ([2]; Kolliphor ELP/propylene glycol/water 5/50/45 % w/v, aqueous with cosolvent or surfactant or cyclodextrin): 19.4 mg/mL
- solubility ([2]; Kolliphor ELP/propylene glycol/water 30/50/20 % w/v, aqueous with cosolvent or surfactant or cyclodextrin): 72.9 mg/mL
- solubility ([2]; Kolliphor ELP/water 30/70 % w/v, aqueous with cosolvent or surfactant or cyclodextrin): 42.7 mg/mL
- solubility ([2]; Kolliphor ELP/water 80/20 % w/v, aqueous with cosolvent or surfactant or cyclodextrin, less than 5 mL added due to viscosity of medium): 97.6 mg/mL
- solubility ([2]; PEG 400/water 50/50 % w/v cosolvent mixture, aqueous with cosolvent or surfactant or cyclodextrin, PEG 400/water 50/50 % w/v): 9.22 mg/mL
- solubility ([2]; Tween 80/ethanol/water 5/50/45 % w/v, aqueous with cosolvent or surfactant or cyclodextrin): 84 mg/mL
- solubility ([2]; Tween 80/propylene glycol/water 5/50/45 % w/v, aqueous with cosolvent or surfactant or cyclodextrin): 14.8 mg/mL
- solubility ([2]; Tween 80/propylene glycol/water 30/50/20 % w/v, aqueous with cosolvent or surfactant or cyclodextrin): 76.3 mg/mL
- solubility ([2]; Tween 80/water 30/70 % w/v, aqueous with cosolvent or surfactant or cyclodextrin): 31.9 mg/mL
- solubility ([2]; Tween 80/water 80/20 % w/v, aqueous with cosolvent or surfactant or cyclodextrin, less than 5 mL added due to viscosity of medium): 84.4 mg/mL
- solubility ([2]; aqueous with cosolvent or surfactant or cyclodextrin, propylene glycol/ethanol/water 50/25/25 % w/v): 71.4 mg/mL
- solubility ([2]; ethanol/water 50/50 % w/v, aqueous with cosolvent or surfactant or cyclodextrin): 72.6 mg/mL
- solubility ([2]; organic solvent or mixture, propylene glycol/PEG 400/glycerol 50/25/25 % w/v): 68.7 mg/mL
- solubility ([2]; organic solvent or mixture, propylene glycol/ethanol/glycerol 50/25/25 % w/v): 71.9 mg/mL
- solubility ([2]; propylene glycol/PEG 400/water 50/25/25 % w/v, aqueous with cosolvent or surfactant or cyclodextrin): 31.3 mg/mL
- solubility ([2]; propylene glycol/water 50/50 % w/v, aqueous with cosolvent or surfactant or cyclodextrin): 5.82 mg/mL
- solubility ([2]; propylene glycol/water 80/20 % w/v, aqueous with cosolvent or surfactant or cyclodextrin): 37.3 mg/mL
SMILES: CC(C)C(=O)c1c(C(C)C)nn2ccccc12 [ibudilast, 3-isobutyryl-2-isopropylpyrazolo[1,5-a]pyridine]
